Target: mouse Asah2 (Mus musculus, UniProt Q9JHE3)
Assay: fluorogenic ceramidase activity assay
Assay type: biochemical

Chain of mouse Asah2 (Q9JHE3 whole entry): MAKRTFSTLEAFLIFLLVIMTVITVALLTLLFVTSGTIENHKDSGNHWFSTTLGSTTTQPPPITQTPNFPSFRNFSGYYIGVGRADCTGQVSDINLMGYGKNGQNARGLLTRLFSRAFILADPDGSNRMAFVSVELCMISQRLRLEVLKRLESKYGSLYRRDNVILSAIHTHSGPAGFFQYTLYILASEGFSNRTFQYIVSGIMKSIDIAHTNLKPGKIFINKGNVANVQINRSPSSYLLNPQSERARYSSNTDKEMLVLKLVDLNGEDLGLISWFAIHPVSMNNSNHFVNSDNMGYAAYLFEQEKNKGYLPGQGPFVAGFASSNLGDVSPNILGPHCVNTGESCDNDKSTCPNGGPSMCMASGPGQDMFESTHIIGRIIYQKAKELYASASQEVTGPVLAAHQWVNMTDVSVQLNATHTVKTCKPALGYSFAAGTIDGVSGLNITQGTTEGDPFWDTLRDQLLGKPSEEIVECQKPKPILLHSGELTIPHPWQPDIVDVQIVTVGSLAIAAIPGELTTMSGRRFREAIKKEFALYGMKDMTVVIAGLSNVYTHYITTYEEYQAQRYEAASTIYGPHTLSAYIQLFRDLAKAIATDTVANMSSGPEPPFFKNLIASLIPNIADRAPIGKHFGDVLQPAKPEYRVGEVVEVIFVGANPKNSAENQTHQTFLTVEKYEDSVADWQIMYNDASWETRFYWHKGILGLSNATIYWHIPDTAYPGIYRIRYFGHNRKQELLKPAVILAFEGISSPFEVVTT

IC50: 30.2 µM
SMILES: O=c1nc(Nc2cccc(Cl)c2)oc2cc(Cl)oc(=O)c12 [NC06, 7-chloro-2-(3-chloroanilino)pyrano[3,4-e][1,3]oxazine-4,5-dione]
